# Results taken from patent US20250018019A1, “TREATMENT OF INTERFERON DRIVEN INFLAMMATION” (The Provost, Fellows, Foundation Scholars and the other …, priority 2023, published 2025).
# Structures can show the parent of a compound that is named as a salt.
# Key:
# [1] = tested on: BMDMs; assay: LC-MS steady-state metabolomics / fumarate levels in BMDMs; assay type: cell-based, mouse; conditions: LPS 4 h; for ratios of ATP/ADP, ATP/AMP, and P-creatine/creatine: BMDMs pre-treated 3 h (FHIN1 10 or 20 μM, DMF 25 μM)
# Procedure: All compounds used DMSO as a vehicle except for 4-hydroxy tamoxifen (EtOH), NAC (PBS), and AOAA for tracing experiments (Media). LPS was used at a concentration of 100 ng/ml for indicated timepoints (2, 3, 4, 6, 8, 24, 48 h). FHIN1 (10 or 20 μM), MMF (50 or 100 μM), DMF (25 μM), AOAA (5 mM), oligomycin (10 μM), CCCP (50 μM) NAC (1 mM), and IMT1 (10 μM) pre-treatments were performed for 3 h prior the addition of LPS. Cells were treated with valinomycin (10 nM) 15 mins before LPS stimulation. Anti-CD210 or IgG control (10 μg/ml) antibodies were added to cells 1 h prior to LPS stimulation. Recombinant mouse IL-10 protein (100 ng/ml) was added to cells at the same time as LPS. Cells were treated with IFN-B1 (220 ng/ml) for 3 h. Cells were treated with C-178 (1 μM) 1 h prior to LPS stimulation or transfection with 2′3′-cGAMP (1.5 μg/ml) for 4 hrs to achieve cGAS-STING activation. Cells were treated with ODN 2088 (1 μM) for 1 hr prior to LPS stimulation or transfection with CPG ODN 1826 (1.5 μg/ml) to achieve TLR9 activation. 3 different timepoints of 4-hydroxy tamoxifen (TAM) (600 nM or 2 μM) or EtOH treatment were performed-these are specified in the individual figure legends. For ‘48 h’ treatments EtOH/TAM was added on day 5 of 6 during the BMDM differentiation protocol. On day 6 they were plated with EtOH/TAM (left overnight) and treated the following day. For ‘72 h’ treatments EtOH/TAM was added on day […] of 6 during the BMDM differentiation protocol. On day 6 they were plated with EtOH/TAM (left overnight) and treated the following day. For ‘96 h’ treatments EtOH/TAM was added on day […] of 6 during the BMDM differentiation protocol. On day 6 they were plated with EtOH/TAM and treated 2 days later.
# BMDMs (3 independent mice) were plated at 0.5×10^6 cells/well in 12-well plates in technical triplicate per condition, treated as indicated, snap frozen and stored at −80° C. For metabolomics on cytosolic fraction, BMDMs were plated at 10×10^6 cells/10 cm dish and rapid fractionation was performed as previously reported^16. Metabolite extraction solution (MES) (methanol/acetonitrile/water, 50:30:20 v/v/v) was added (0.5 mL per 1×10^6 cells) and samples were incubated for 15 min on dry ice. The resulting suspension was transferred to ice-cold microcentrifuge tubes. Samples were agitated for 20 min at 4° C. in a thermomixer and then incubated at −20° C. for 1 h. Samples were centrifuged at maximum speed for 10 min at 4° C. The supernatant was transferred into a new tube and centrifuged again at maximum speed for 10 min at 4° C. The supernatant was transferred to autosampler vials and stored at −80° C. prior to analysis by LC-MS.
# HILIC chromatographic separation of metabolites was achieved using a Millipore Sequant ZIC-PHILIC analytical column (5 μm, 2.1×150 mm) equipped with a 2.1×20 mm guard column (both […] particle size) with a binary solvent system. Solvent A was 20 mM ammonium carbonate, 0.05% ammonium hydroxide; Solvent B was acetonitrile. The column oven and autosampler tray were held at 40° C. and 4° C., respectively. The chromatographic gradient was run at a flow rate of 0.200 mL/min as follows: 0-2 min: 80% B; 2-17 min: linear gradient from 80% B to 20% B; 17-17.1 min: linear gradient from 20% B to 80% B; 17.1-22.5 min: hold at 80% B. Samples were randomized and analysed with LC-MS in a blinded manner and the injection volume was 5 μl. Pooled samples were generated from an equal mixture of all individual samples and analysed interspersed at regular intervals within sample sequence as a quality control. Metabolites were measured with a Thermo Scientific Q Exactive Hybrid Quadrupole-Orbitrap Mass spectrometer (HRMS) coupled to a Dionex Ultimate 3000 UHPLC or with Vanquish Horizon UHPLC coupled to an Orbitrap Exploris 240 mass spectrometer (both Thermo Fisher Scientific) via a heated electrospray ionization source. […]
# [2] = target: T1, c-Fos (Mus musculus, UniProt P01101); assay: c-Fos activity assay (AP1 transcription factor assay on nuclear extracts); assay type: cell-based; conditions: BMDMs pre-treated 3 h, LPS 4 h
# T1 construct: nuclear extracts were isolated using a Nuclear Extraction Kit; endogenous in cells; host or cells: mouse bone-marrow-derived macrophages (BMDMs), nuclear extract
# Procedure: BMDMs from 3 mice were plated in 10 cm dishes at 0.5×10^6 cells/mL and left overnight. Cells were pre-treated with FHIN1 or DMF (3 h) prior to LPS stimulation (4 h). Upon harvesting, nuclear extracts were isolated using a Nuclear Extraction Kit (ab113474) purchased from Abcam. Nuclear extracts were quantified via BCA assay and standardised. c-Fos relative activity was then quantified using the AP1 transcription factor assay purchased from Abcam (Ab207196) according to the manufacturers protocol.
# T1 sequence (P01101 whole entry): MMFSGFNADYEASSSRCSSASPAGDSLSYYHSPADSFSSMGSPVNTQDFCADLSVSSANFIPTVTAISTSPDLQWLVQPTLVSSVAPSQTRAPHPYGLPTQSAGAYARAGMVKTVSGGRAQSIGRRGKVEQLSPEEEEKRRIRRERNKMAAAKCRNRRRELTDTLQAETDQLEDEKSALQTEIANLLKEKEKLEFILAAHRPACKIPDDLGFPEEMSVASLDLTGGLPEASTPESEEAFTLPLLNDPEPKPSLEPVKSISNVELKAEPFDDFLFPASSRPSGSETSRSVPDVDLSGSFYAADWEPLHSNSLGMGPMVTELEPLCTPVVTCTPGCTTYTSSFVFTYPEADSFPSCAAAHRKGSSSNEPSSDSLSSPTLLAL
# T1 sequence (P05627 whole entry partner): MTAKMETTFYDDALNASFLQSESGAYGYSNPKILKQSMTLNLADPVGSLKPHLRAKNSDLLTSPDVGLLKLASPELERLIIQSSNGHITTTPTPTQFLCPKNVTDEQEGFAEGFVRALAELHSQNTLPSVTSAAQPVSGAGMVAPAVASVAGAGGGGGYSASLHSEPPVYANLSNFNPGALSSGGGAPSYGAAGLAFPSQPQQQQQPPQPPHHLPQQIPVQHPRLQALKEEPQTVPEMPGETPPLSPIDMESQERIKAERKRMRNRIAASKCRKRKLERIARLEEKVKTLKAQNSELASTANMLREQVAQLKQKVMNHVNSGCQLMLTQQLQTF
c-Fos activation [2],SMILES,"ratios of ATP/ADP, ATP/AMP, and P-creatine/creatine [1]",GSSG/GSH ratio ([1]; BMDMs pre-treated 3 h),"TCA cycle metabolites including citrate, aconitate, itaconate and succinate ([1]; BMDMs pre-treated 3 h)",aconitate/citrate ratio ([1]; BMDMs pre-treated 3 h),fumarate and 2SC accumulation ([1]; BMDMs pre-treated 3 h),glyceraldehyde 3-phosphate (G3P)/2/3-phosphoglycerate (2/3-PG) ratio ([1]; BMDMs pre-treated 3 h),total glutathione ([1]; BMDMs pre-treated 3 h)
strongly impaired,"COC(=O)/C=C/C(=O)OC [DMF, dimethyl fumarate]",no effect,,,,,,
strongly impaired,"CCOC(=O)[C@@]12CCCC=C1N(Cc1ccc(-c3ccccc3)cc1)C(=O)[C@H]2CC(=O)NC [FHIN1, Fumarate hydratase-IN-1]",reduced,unchanged,alterations,decreased,enhanced,increased,depletion
